Measured values taken from a compilation of properties of binary mixtures (doi:10.1016/j.molliq.2018.05.059).

Test: xn = mol fraction of the nth substance listed
Conditions: 298 K, 101 kPa

`CC(O)C(=O)[O-].CCC[N+]1(C)CCN(C)CC1` + CC#N showed an electrical conductivity (x2 = 0.808) of 1.52 S/m, an electrical conductivity (x2 = 0.835) of 1.72 S/m and an electrical conductivity (x2 = 0.856) of 1.83 S/m. It also gave an electrical conductivity (x2 = 0.872) of 1.91 S/m, an electrical conductivity (x2 = 0.89) of 1.99 S/m and an electrical conductivity (x2 = 0.898) of 1.99 S/m. It also gave an electrical conductivity (x2 = 0.907) of 2.04 S/m, an electrical conductivity (x2 = 0.918) of 2.05 S/m and an electrical conductivity (x2 = 0.927) of 2.05 S/m. It also gave an electrical conductivity (x2 = 0.939) of 2.01 S/m and an electrical conductivity (x2 = 0.945) of 1.96 S/m.

Molecule `CC(=O)[O-].CCC[N+]1(C)CCN(C)CC1` + CC#N has an electrical conductivity (x2 = 0.806) of 1.82 S/m, an electrical conductivity (x2 = 0.819) of 1.89 S/m and an electrical conductivity (x2 = 0.832) of 1.95 S/m. For the same molecule, the electrical conductivity (x2 = 0.843) was 1.98 S/m, the electrical conductivity (x2 = 0.852) was 1.98 S/m and the electrical conductivity (x2 = 0.859) was 2.04 S/m. For the same molecule, the electrical conductivity (x2 = 0.874) was 2.01 S/m, the electrical conductivity (x2 = 0.884) was 2.04 S/m and the electrical conductivity (x2 = 0.895) was 2.06 S/m. For the same molecule, the electrical conductivity (x2 = 0.902) was 2.06 S/m, the electrical conductivity (x2 = 0.919) was 2.04 S/m and the electrical conductivity (x2 = 0.931) was 2.01 S/m. The electrical conductivity (x2 = 0.937) was 1.94 S/m and the electrical conductivity (x2 = 0.95) was 1.85 S/m.
